Test results published in patent US20220249599A1, “TREATMENT OF IMPLANTS WITH ENGINEERED ANTIMICROBIAL AMPHIPHILIC PEPTIDES” (priority 2018, published 2022).
Read-outs that look alike come from different tables or passages of the source.

Key:
[1] = tested on: Enterococcus faecium (n = 104); assay: microbe, parasite or virus in culture; conditions: Enterococcus faecium (n = 104)
Experimental: Comparator antibiotics were supplied by Micromyx, and stock solutions were prepared on the first day of testing using solvents recommended by CLSI (1). Stock solutions of all compounds were made at 40× the final testing concentration and stored at −80° C. prior to testing. Information regarding compound source, catalog and lot number, testing concentrations and drug diluent for the comparators and test agent are detailed below in Table 3.
The test organisms evaluated in this study consisted of clinical isolates from the Micromyx Repository and reference isolates from the American Type Culture Collection (ATCC; Manassas, Va.). The clinical isolates were obtained from USA hospitals. Upon initial receipt at Micromyx, the organisms were sub-cultured onto an appropriate agar medium. Following incubation, colonies were harvested from these plates and cell suspensions prepared and frozen at −80° C. with a cryoprotectant. Prior to testing, the isolates were streaked from frozen vials onto Trypticase Soy Agar with 5% sheep blood (Becton Dickenson [BD]; Sparks, MD; Lot Nos. 7173618, 7166759, 7208688, 72144895, 7228505 and Remel Lenexa, Kans. Lot No. 212574). Plates were incubated at 35° C. overnight.
Mueller Hinton II broth (MHB II; BD; Lot Nos. 6258541 and 7143896) was used for MIC testing of aerobic organisms.
MIC values were determined using a broth microdilution procedure described by CLSI (1, 3). Automated liquid handlers (Multidrop 384, Labsystems, Helsinki, Finland; Biomek 2000 and Biomek FX, Beckman Coulter, Fullerton Calif.) were used to conduct serial dilutions and liquid transfers.
To prepare the drug mother plates, which would provide the serial drug dilutions for the replicate daughter plates, the wells of columns 2-12 of standard 96-well microdilution plates (Costar 3795) were filled with 150 µl of the designated diluent for each row of drug. The test articles and comparator compounds ([…] at 40× the highest concentration to be tested) were dispensed into the appropriate wells in column 1. The Biomek 2000 was then used to make 2-fold serial dilutions in the mother plates from column 1 through column 11. The wells of Column 12 contained no drug and served as the organism growth control wells for the assay.
The daughter plates were loaded with […] per well of MHB II using the Multidrop 384. The daughter plates were completed on the Biomek FX instrument which transferred 5 µL of drug solution from each well of a mother plate to the corresponding well of each daughter plate in a single step. A standardized inoculum of each test organism was prepared per CLSI methods (1). The inoculum for each organism was dispensed into sterile reservoirs divided by length (Beckman Coulter), and the Biomek 2000 was used to inoculate the plates. Daughter plates were placed on the Biomek 2000 work surface in reverse orientation so that inoculation took place from low to high drug concentration.
Plates were stacked 3-4 high, covered with a lid on the top plate, placed in plastic bags, and incubated at 35° C. for 16 to 20 hrs. Following incubation, the microplates were removed from the incubator and viewed from the bottom using a plate viewer. […] The MIC was read and recorded as the lowest concentration of drug that inhibited visible growth of the organism.
Clinical breakpoints to determine percent resistance within a given organism group were obtained from CLSI (3), with the exception of colistin for K. pneumoniae, Enterobacter spp., and E. coli, which are only available from EUCAST.

[2] = tested on: Staphylococcus aureus (n = 104); assay: microbe, parasite or virus in culture; format: cell-based; conditions: Staphylococcus aureus (n = 104)
Experimental: (§1) The clinical isolates were obtained from USA hospitals. […] Plates were incubated at 35° C. overnight.

[3] = tested on: Acinetobacter spp. (n = 104); format: cell-based; conditions: Acinetobacter spp. (n = 104), CLSI breakpoints
Experimental: as §1

[4] = tested on: Escherichia coli (n = 101); format: cell-based; conditions: Escherichia coli (n = 101), CLSI breakpoints, colistin EUCAST
Experimental: as §1

[5] = tested on: Klebsiella pneumoniae (n = 101); format: cell-based
Experimental: as §1

[6] = tested on: Pseudomonas aeruginosa (n = 109); format: cell-based; conditions: Pseudomonas aeruginosa (n = 109), CLSI breakpoints
Experimental: as §1

[7] = tested on: Enterobacter spp. (n = 102); format: cell-based, Enterobacter aerogenes and E. cloacae; conditions: Enterobacter spp. (n = 102)
Experimental: as §1

Compound: CC(=O)NC[C@H]1CN(c2ccc(N3CCOCC3)c(F)c2)C(=O)O1 [Linezolid]
- MIC range [1]: 1 to 32 µg/mL
- % R (isolates resistant) ([1]; CLSI breakpoints): 3.8%
- MIC range ([1]; listed as linezolid): 1 to 32 µg/mL
- % R (isolates resistant) ([2]; CLSI breakpoints): 1.9%
- MIC range ([2]; all methicillin-resistant): 1 to 8 µg/mL

Compound: NC[C@H]1O[C@H](O[C@H]2[C@H](O)[C@@H](O[C@H]3O[C@H](CO)[C@@H](O)[C@H](N)[C@H]3O)[C@H](N)C[C@@H]2N)[C@H](N)C[C@@H]1O [Tobramycin]
- % R (isolates resistant) [3]: 49.0%
- % R (isolates resistant) [4]: 21.7%
- % R (isolates resistant) [5]: over 60%
- % R (isolates resistant) ([5]; Klebsiella pneumoniae (n = 101), CLSI breakpoints, colistin EUCAST): 59.4%
- % R (isolates resistant) [6]: 7.4%
- MIC range [7]: 0.12 to 64 µg/mL
- % R (isolates resistant) ([7]; CLSI breakpoints, colistin EUCAST): 3.9%
